Legend:
β-adrenoceptor = test: adequacy of betablockade checked with isoproterenol test dose in the anaesthetized open chest cat; format: in vivo; settings: LT 50 μg/kg i.v.; isoproterenol 0.05 μg/kg before, 0.1 μg/kg after betablockade
Protocol: Cats of 2 to 4 kg of body weight were anaesthetized with chloralose urethane (43 and 430 mg/kg) and ventilated with a Loosco M.K.II infant ventilator with positive end-expiratory pressure. Catheters were inserted into the femoral artery and vein. The thorax was opened through the left fourth intercostal space, the aorta was freed of its adventitia and an electromagnetic flow probe was placed around it. The electromagnetic flow signal and its first derivative, acceleration of the blood in the aorta, mean aortic flow, phasic and mean aortic blood pressure, heart rate and mean right atrial pressure were recorded on a Beckmann R612 8 channel recorder. For flow measurements a Narco RT500 flowmeter was used. Differentiation was performed by a HSE 401 differentiator. The flow signal, which is a measurement of the velocity of blood in the aortic root was electronically integrated to obtain mean aortic flow. At the same time this signal was fed into the differentiator mentioned. The output of the differentiator, acceleration of blood in the aorta, is an indicator of myocardial function and was used instead of dp/dt (R. R. Rushmer, Circulation 29 [1964] 268, G. C. Van den Bos et al., Cardiovascular Research 7 [1973] 834), applied to cats by R. P. Hof and A. Hof, Journal of Pharmacological Methods, accepted for publication in 1981. […] The samples were counted in a Packard Mod. […]

[1] = biological target: T1, calcium-induced contraction of isolated dog coronary arteries (Canis lupus familiaris, UniProt A0A8I3QY31); test: calcium antagonism: calcium-induced contraction of isolated dog coronary arteries in depolarizing solution; format: cell-based; settings: helical strips of dog coronary artery, 100 mM KCl solution, cumulative CaCl2 response curves, drug added 30 min before CaCl2; read-out: pA2 of calcium antagonism (converted)
T1 construct: Branches of the ventral interventricular artery (about 500 to 1000 μm outer diameter) were dissected and cut into helical strips; from tissue; host or cells: helical strips of branches of the ventral interventricular (coronary) artery of mongrel dogs
T1 sequence (A0A8I3QY31 1-2188): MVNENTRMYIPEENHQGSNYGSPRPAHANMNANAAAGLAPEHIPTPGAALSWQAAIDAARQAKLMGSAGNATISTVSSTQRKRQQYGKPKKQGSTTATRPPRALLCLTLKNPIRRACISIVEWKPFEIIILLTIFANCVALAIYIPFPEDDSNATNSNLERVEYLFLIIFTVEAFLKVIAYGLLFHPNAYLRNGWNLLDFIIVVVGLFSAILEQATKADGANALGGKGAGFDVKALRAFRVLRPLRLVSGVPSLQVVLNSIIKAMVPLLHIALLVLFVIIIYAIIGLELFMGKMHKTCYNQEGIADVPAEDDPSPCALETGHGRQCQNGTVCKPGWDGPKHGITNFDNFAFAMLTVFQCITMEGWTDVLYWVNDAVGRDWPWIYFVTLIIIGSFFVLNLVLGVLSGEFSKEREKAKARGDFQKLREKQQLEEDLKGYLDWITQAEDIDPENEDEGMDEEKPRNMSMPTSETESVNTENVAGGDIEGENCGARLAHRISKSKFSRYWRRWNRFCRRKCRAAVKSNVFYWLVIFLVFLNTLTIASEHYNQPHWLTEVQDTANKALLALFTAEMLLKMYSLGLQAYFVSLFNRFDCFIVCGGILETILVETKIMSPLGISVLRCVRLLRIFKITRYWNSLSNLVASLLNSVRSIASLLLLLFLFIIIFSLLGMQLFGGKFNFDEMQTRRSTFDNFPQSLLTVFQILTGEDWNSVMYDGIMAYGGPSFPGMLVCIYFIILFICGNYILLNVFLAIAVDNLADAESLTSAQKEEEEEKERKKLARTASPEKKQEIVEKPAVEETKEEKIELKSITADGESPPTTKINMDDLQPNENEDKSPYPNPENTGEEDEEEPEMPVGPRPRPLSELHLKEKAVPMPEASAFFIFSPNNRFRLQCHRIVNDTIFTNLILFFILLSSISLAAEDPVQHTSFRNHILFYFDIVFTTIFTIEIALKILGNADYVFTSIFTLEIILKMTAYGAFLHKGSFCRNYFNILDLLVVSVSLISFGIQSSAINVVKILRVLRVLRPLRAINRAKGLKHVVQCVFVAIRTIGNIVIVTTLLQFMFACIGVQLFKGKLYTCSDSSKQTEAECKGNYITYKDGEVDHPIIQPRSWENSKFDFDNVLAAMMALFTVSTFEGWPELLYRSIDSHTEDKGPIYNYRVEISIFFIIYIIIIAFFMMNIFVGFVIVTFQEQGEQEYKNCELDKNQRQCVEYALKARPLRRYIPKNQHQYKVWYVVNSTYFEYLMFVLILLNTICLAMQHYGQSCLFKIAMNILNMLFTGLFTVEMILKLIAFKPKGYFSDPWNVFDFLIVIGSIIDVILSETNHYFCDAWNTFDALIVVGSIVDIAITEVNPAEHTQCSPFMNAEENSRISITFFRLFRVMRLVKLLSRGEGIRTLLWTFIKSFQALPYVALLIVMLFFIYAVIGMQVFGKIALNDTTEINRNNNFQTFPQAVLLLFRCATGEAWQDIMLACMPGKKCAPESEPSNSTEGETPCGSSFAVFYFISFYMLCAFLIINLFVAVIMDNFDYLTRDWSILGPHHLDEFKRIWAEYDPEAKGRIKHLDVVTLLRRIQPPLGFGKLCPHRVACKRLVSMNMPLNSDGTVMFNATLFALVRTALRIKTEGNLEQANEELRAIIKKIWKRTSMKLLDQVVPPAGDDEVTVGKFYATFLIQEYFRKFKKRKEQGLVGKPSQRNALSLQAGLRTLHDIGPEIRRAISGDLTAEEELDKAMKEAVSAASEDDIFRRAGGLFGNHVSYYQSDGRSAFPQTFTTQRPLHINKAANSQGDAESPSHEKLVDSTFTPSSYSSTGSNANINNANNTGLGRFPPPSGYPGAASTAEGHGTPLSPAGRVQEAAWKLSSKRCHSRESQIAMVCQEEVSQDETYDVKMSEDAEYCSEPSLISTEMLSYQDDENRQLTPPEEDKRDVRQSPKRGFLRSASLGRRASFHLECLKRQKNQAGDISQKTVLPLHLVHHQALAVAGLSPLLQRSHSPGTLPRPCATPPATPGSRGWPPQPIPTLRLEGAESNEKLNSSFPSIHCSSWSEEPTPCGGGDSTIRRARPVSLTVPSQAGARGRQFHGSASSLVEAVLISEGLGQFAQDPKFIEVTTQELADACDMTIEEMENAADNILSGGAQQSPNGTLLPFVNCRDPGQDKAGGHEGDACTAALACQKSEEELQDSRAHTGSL
Protocol: First the potency of calcium antagonism was determined on coronary arteries in vitro:
Mongrel dogs of either sex weighing between 15 and 30 kg were anaesthetized by rapid i.v. injection of pentobarbitone (50 mg/kg) and killed by i.v. injection of 100 ml of air. The heart was removed and placed in a modified Krebs-Henseleit solution (mM): NaCl 118, KCl 4.7, MgSo4 1.2, CaCl2 2.5, KH2 PO4 1.2, NaHCO3 25, glucose 11, at 37° C., gassed with 95% O2 -5% CO2. Branches of the ventral interventricular artery (about 500 to 1000 μm outer diameter) were dissected and cut into helical strips, approximately 1 to 3 mm wide and 10 mm long.
The strips were suspended in 10 ml organ baths containing Krebs-Henseleit solution at 37° C. gassed continuously with 5% CO2 in oxygen. Changes in the tension of the strips were recorded isometrically with electromechanical transducers (Statham model UC 3) and a potentiometric recorder. At the beginning of the experiments the strips were stretched to an initial tension of 500 mg and then allowed to equilibrate for 120 to 180 minutes in the bathing medium. Thereafter the Krebs-Henseleit solution was replaced by a solution containing 100 mM KCl in equimolar replacement for NaCl. Cumulative response curves for CaCl2 were established, using the method described by Van Rossum, J. M., Arch. […] The effects were expressed as percentage of the preceding response to […]. […]

[2] = test system: paced guinea pig left atrium; test: contractility of paced guinea pig left atria in vitro; format: cell-based; settings: for difference between cardiodepressant concentration and the pA2 of Ca-antagonism: guinea pig atria concentration vs dog coronary artery pA2
Protocol: (§1) Then the effects on contractility of paced guinea pig left […] in vitro was measured:
(§2) Guinea pigs of either sex weighing 250 to 400 g were killed by a blow on their heads and the left atrium was rapidly dissected from the heart and suspended in a modified oxygenated Tyrode solution at 30° C. The preload was adjusted to 1 g, rectangular impulses of 10 msec. at a rate of 1 Hz were used for pacing through a platinum cathode attached to the lower end of the tissue. The tension developed was measured isometrically with a Statham UC 3 transducer.

[3] = biological target: T2, paced guinea pig left atrium (Cavia porcellus, UniProt O35505); test: as above; format: cell-based; settings: guinea pig; highest dose 0.444 μM; paced 1 Hz, 30° C.; read-out: contractile force, % of its baseline value
T2 construct: the left atrium was rapidly dissected from the heart and suspended in a modified oxygenated Tyrode solution; from tissue; host or cells: isolated left atrium of guinea pig
T2 sequence (O35505 whole entry): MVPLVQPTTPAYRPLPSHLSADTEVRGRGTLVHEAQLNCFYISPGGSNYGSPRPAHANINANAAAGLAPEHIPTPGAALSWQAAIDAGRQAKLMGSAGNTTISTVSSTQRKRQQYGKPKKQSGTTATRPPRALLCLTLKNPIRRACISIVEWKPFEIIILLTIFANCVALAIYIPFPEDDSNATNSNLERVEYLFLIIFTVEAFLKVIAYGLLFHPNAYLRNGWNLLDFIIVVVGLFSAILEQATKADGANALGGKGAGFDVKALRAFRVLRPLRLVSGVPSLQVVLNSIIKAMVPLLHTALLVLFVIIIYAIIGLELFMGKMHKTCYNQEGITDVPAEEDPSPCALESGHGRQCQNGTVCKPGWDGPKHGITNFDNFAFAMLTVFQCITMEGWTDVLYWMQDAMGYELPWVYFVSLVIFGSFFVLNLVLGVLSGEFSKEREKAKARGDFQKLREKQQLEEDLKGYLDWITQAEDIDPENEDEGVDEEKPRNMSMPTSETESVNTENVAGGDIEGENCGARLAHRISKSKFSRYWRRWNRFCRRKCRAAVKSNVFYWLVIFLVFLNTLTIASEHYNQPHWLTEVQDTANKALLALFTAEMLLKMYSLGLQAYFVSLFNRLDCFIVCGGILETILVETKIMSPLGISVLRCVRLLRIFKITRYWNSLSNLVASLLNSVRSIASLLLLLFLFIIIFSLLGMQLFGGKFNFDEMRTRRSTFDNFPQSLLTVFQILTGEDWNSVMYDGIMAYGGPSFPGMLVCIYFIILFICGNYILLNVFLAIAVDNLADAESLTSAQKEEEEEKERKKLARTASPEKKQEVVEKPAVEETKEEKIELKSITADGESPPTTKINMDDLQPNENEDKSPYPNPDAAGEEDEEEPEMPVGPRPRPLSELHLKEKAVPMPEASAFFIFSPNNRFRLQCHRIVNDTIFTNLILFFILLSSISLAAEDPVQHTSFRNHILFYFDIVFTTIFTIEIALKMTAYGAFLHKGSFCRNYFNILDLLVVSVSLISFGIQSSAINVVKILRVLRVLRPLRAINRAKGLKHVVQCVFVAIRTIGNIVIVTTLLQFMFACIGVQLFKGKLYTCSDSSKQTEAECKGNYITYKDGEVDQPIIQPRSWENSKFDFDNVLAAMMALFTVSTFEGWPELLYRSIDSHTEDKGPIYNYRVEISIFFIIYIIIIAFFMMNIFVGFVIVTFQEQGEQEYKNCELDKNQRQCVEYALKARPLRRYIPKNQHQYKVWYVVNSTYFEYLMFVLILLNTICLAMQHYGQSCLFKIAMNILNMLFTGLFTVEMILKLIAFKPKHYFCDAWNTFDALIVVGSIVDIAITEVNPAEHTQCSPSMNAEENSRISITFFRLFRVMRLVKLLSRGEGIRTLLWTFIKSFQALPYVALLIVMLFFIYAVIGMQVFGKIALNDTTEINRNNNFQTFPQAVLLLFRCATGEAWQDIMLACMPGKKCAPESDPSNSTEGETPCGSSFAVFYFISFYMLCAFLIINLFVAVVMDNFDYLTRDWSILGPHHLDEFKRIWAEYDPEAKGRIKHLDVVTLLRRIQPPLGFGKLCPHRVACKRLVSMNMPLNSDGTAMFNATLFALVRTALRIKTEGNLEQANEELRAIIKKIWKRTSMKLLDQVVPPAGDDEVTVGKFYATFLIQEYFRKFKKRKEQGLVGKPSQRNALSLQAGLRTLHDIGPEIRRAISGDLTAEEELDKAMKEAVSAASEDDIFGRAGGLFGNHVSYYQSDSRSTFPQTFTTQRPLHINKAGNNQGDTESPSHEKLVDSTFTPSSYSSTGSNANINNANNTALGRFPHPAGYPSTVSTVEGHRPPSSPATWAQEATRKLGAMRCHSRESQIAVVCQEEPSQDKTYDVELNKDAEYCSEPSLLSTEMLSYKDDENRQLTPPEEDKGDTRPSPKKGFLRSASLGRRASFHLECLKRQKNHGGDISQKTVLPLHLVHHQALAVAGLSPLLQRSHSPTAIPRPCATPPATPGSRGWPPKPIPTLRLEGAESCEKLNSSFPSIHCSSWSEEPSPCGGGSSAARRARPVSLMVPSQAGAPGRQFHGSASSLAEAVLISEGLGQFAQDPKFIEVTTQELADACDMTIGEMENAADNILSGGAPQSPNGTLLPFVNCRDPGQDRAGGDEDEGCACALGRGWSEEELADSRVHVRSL
Protocol: as §1, §2

[4] = test system: anaesthetized open chest cat; test: hemodynamics in the anaesthetized open chest cat (microsphere method); format: in vivo
Protocol: This observation was arrived at in the anaesthetized open chest cat as follows:
The microsphere method as described in 1967 by Rudolph, A. M. and Heymann, M. S. in Circ. Res. 21 (1967) 163 and modified by R. P. Hof, F. Wyler and G. Stalder, Basic Res. Cardial. 75, 747-756 (1980) was used. Cardiac output was calculated from the flow signal of an electromagnetic flow meter. […] This consists in sampling blood at a known flow rate into a syringe, which can be regarded as "an external organ".
This sampling is done during the time of microsphere circulation. The number of microspheres in the syringe is then determined and cardiac output can be calculated as follows:
where CO is cardiac output, Qs is flow to the syringe, Ni is the number of spheres injected and Ns is the number of spheres in the syringe.
Cats of 2 to 4 kg of body weight were anaesthetized with chloralose urethane (43 and 430 mg/kg) and ventilated with a Loosco M.K.II infant ventilator with positive end-expiratory pressure. Catheters were inserted into the femoral artery and vein. […] The electromagnetic flow signal and its first derivative, acceleration of the blood in the aorta, mean aortic flow, phasic and mean aortic blood pressure, heart rate and mean right atrial pressure were recorded on a Beckmann R612 8 channel recorder. […] The samples were counted in a Packard Mod. […]

Row | Compound | suppression of isoproterenol effects (β-adrenoceptor) | Kb [1] | difference between cardiodepressant concentration and the pA2 of Ca-antagonism [2] | activity at 0.444 µM [3] | times less cardiodepressant than Verapamil for a similar degree of calcium antagonism ([2]; relative to Verapamil) | coronary blood flow ([4]; 43 μg/kg i.v., no pretreatment) | general hemodynamic parameters (acceleration of blood, cardiac output, heart rate, coronary flow) after β-blocker pretreatment ([4]; compound No. 22 43 μg/kg i.v., 60 minutes after LT 50 μg/kg i.v.)
1 | Cc1cc2c(OCC(CNC(C)(C)C)OC(=O)c3ccccc3)cccc2[nH]1 (stereo not drawn) [LT, 4-(2-benzoyloxy-3-tert-butylaminopropoxy)-2-methylindole] | completely or almost completely suppressed | – | – | – | – | – | –
2 | COc1ccc(CCN(C)CCCC(C#N)(c2ccc(OC)c(OC)c2)C(C)C)cc1OC (stereo not drawn) [Verapamil, reference compound] | – | 15.8 nM | about 100 fold | – | – | – | –
3 | CCOC(=O)C1=C(C)NC(C)=C(C(=O)OCC)C1c1cccc2nonc12 [compound No. 22] | – | 0.0316 nM | about 10,000 fold | 56% | about 100 times | markedly increased | strikingly similar to those without pretreatment
